# Values quoted from earlier work, collected in patent US11236258B2, “Aqueous based dust control compositions and methods” (Trican Well Service Ltd, priority 2018, dated 2022).
# What was measured:
# [1] = within 14 days
Compound,measured solubility in water [µg/mL],"biodegradation, degradation [1] [%]",solubility in water [µg/mL]
"C[N+](C)(C)CCO.[Cl-] [Choline chloride, choline chloride]",650000,93,
"C[N+](C)(C)CCOP(=O)(O)OCC(O)CO (stereo not shown) [GPC, glycerophosphocholine]",,,4040
"C[N+](C)(C)CCO [CHO, choline]",,,3610
